Results: patent publication US20060194698A1, “Use of herbs as a delivery system for bioactive phytochemicals” (priority 2003, published 2006)

What was measured:
Alternaria = test: Essential oil components against Alternaria growth (saturated cotton swab suspended above culture); type: cell-based; conditions: pure essential oil component
Experimental: Antifungal activity of the essential oil components against Rhizoctonia and Pythium will be tested by means previously used to evaluate Alternaria growth. Briefly, a cotton swab saturated with the oil is suspended above a culture of the test pathogen. Fungal dry weight is then determined. Appropriate controls are performed.

Sclerotinia = test: Essential oil components / ground herbage against Sclerotinia and its sclerotia; type: cell-based; conditions: pure essential oil component

SMILES | growth of Alternaria (Alternaria) | activity against the sclerotia of Sclerotinia (Sclerotinia) | growth of Sclerotinia (Sclerotinia)
Cc1ccc(C(C)C)cc1O [carvacrol] | completely inhibit growth | inhibitory activity | completely inhibit growth
C=C(C)[C@H]1CC=C(C)CC1 [limonene] | inhibit the growth of Alternaria, but not as effectively as cymene |  | 
Cc1ccc(C(C)C)cc1 [cymene, p-cymene] | reduce the growth |  | 
CC(C)=CCC/C(C)=C/CO [geraniol] | completely inhibit growth | inhibitory activity | completely inhibit growth
Cc1ccc(C(C)C)c(O)c1 [thymol] | completely inhibit growth | inhibitory activity | completely inhibit growth
